The source made the active and inactive calls. The rule behind the calls is not given here.
What was measured:
in vitro [1] = conditions: human, HepG2 cells
Description: Hepatotoxicity against human HepG2 cells assessed as cell viability at 1 uM after 24 hrs by MTT assay relative to control

in vitro [2] = conditions: human, HepG2 cells; remark: listed apart in the source
Description: Hepatotoxicity against human HepG2 cells assessed as cell viability at 100 uM after 24 hrs by MTT assay relative to control

in vitro [3] = conditions: human, HepG2 cells; remark: listed apart in the source
Description: Hepatotoxicity against human HepG2 cells assessed as cell viability at 30 uM after 24 hrs by MTT assay relative to control

in vitro [4] = conditions: human, HepG2 cells; remark: listed apart in the source
Description: Hepatotoxicity against human HepG2 cells assessed as cell viability at 10 uM after 24 hrs by MTT assay relative to control

HepG2 [5] = assay: Hepatotoxicity against human HepG2 cells assessed as cell viability after 24 hrs by MTT assay; type: toxicity, cell-based; conditions: hepg2, 24 h
in vitro [6] = conditions: human, HepG2 cells; remark: listed apart in the source
Description: Hepatotoxicity against human HepG2 cells assessed as cell viability at 3 uM after 24 hrs by MTT assay relative to control

Acetylcholinesterase [7] = biological target: T1, Acetylcholinesterase (Electrophorus electricus, UniProt O42275)
Description: Inhibition of electric eel AchE using acetylcholine as substrate preincubated for 15 mins followed by substrate addition measured for 5 mins by Ellman method

in vitro [8] = conditions: human, HepG2 cells; remark: listed apart in the source
Description: Hepatotoxicity against human HepG2 cells assessed as cell viability at 300 uM after 24 hrs by MTT assay relative to control

[9] = Antioxidant activity against AAPH-induced lipid peroxidation assessed as inhibition of conjugated diene hydroperoxide production at 100 uM; type: functional
Glycine max = assay: Inhibition of soybean lipoxygenase assessed as conversion of sodium linoleate to 13-hydroperoxylinoleic acid at 100 uM by UV absorbance assay
Cerebral cortex neuron [10] = assay: Neuroprotective activity in Wistar rat embryo primary cortical neuron using DEVD-AMC as flurogenic substrate assessed as inhibition of SNP-induced cell necrosis by measuring caspase 3 activity at 25 to 50 uM by spectroflurometric analysis in presence of serum relative to control; type: functional, cell-based
[11] = Neuroprotective activity in Wistar rat embryo primary cortical neuron using DEVD-AMC as flurogenic substrate assessed as inhibition of oligomycin A-induced cell death by measuring caspase 3 activity at 25 to 50 uM by spectroflurometric analysis relative to control; type: functional, Cerebral cortex neuron
[12] = Neuroprotective activity in Wistar rat embryo primary cortical neuron assessed as reversal of SNP-induced ROS formation at 25 uM after 24 hrs by spectrofluorometric analysis relative to control; type: functional, Cerebral cortex neuron
[13] = Neuroprotective activity in Wistar rat embryo primary cortical neuron assessed as reversal of SNP-induced ROS formation at 10 uM after 24 hrs by spectrofluorometric analysis relative to control; type: functional, Cerebral cortex neuron
[14] = Neuroprotective activity in Wistar rat embryo primary cortical neuron using DEVD-AMC as flurogenic substrate assessed as inhibition of SNP-induced cell necrosis by measuring caspase 3 activity at 25 to 50 uM by spectroflurometric analysis relative to control; type: functional, Cerebral cortex neuron
[15] = biological target: Acetylcholinesterase (Electrophorus electricus) (UniProt O42275); assay: Noncompetitive inhibition of electric eel AchE using acetylcholine as substrate at 0.01 to 10 uM preincubated for 15 mins followed by substrate addition measured for 5 mins by Lineweaver-Burk plot analysis
[16] = Neuroprotective activity in Wistar rat embryo primary cortical neuron assessed as reduction of SNP-induced cell death by measuring cell viability after 24 hrs by XTT assay relative to control; type: functional, cell-based; conditions: Cerebral cortex neuron
[17] = Neuroprotective activity in Wistar rat embryo primary cortical neuron assessed as reversal of SNP-induced ROS formation at 1 uM after 24 hrs by spectrofluorometric analysis relative to control; type: functional, Cerebral cortex neuron
Acetylcholinesterase [18] = biological target: T1, Acetylcholinesterase; assay: Noncompetitive inhibition of electric eel AchE using acetylcholine as substrate preincubated for 15 mins followed by substrate addition measured for 5 mins by Dixon plot analysis
[19] = Toxicity in Wistar rat embryo primary cortical neuron assessed as increase in ROS formation at >25 uM; type: cell-based; conditions: cerebral cortex neuron
[20] = Neuroprotective activity in Wistar rat embryo primary cortical neuron assessed as reduction of oligomycin A-induced cell death by measuring cell viability at 100 uM after 24 hrs by XTT assay relative to control; type: functional, Cerebral cortex neuron
HepG2 [21] = assay: Hepatotoxicity against human HepG2 cells assessed as LDH release at 1 to 300 uM; type: toxicity, cell-based; conditions: hepg2, 300 µM
SH-SY5Y = assay: Antioxidant activity in human SH-SY5Y cells assessed as decrease in H2O2-induced MDA level after 8 hrs by TBARS assay; type: functional, cell-based
[22] = Neuroprotective activity in Wistar rat embryo primary cortical neuron assessed as reduction of SNP-induced cell death by measuring cell viability at 100 uM after 24 hrs by XTT assay relative to control; type: functional, Cerebral cortex neuron
Cerebral cortex neuron [23] = assay: Neuroprotective activity in Wistar rat embryo primary cortical neuron using DEVD-AMC as flurogenic substrate assessed as inhibition of oligomycin A-induced cell death by measuring caspase 3 activity at 25 to 50 uM by spectroflurometric analysis in presence of serum relative to control; type: functional, cell-based
[24] = Neuroprotective activity in Wistar rat embryo primary cortical neuron assessed as reduction of oligomycin A-induced cell death by measuring cell viability after 24 hrs by XTT assay relative to control; type: functional, cell-based; conditions: Cerebral cortex neuron

T1 sequence (O42275 whole entry): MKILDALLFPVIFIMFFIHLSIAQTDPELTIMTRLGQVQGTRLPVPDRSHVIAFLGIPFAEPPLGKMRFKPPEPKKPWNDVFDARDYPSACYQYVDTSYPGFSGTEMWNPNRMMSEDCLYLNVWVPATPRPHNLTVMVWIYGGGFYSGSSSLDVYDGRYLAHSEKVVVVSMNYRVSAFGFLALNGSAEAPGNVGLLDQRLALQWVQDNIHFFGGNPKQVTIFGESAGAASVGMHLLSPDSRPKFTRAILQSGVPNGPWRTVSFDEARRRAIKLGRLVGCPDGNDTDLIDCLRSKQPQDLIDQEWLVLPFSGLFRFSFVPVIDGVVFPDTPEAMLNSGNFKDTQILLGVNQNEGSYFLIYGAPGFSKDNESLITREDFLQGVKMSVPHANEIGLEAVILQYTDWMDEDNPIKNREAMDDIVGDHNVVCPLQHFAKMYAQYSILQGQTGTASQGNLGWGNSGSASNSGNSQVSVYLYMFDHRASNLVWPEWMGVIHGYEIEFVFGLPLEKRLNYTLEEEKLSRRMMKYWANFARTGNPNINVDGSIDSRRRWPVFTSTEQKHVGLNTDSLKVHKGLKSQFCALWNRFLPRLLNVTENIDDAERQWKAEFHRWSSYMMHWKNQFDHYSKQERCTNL
Acetylcholinesterase (Electrophorus electricus), sequence (O42275 24-633 limits assumed): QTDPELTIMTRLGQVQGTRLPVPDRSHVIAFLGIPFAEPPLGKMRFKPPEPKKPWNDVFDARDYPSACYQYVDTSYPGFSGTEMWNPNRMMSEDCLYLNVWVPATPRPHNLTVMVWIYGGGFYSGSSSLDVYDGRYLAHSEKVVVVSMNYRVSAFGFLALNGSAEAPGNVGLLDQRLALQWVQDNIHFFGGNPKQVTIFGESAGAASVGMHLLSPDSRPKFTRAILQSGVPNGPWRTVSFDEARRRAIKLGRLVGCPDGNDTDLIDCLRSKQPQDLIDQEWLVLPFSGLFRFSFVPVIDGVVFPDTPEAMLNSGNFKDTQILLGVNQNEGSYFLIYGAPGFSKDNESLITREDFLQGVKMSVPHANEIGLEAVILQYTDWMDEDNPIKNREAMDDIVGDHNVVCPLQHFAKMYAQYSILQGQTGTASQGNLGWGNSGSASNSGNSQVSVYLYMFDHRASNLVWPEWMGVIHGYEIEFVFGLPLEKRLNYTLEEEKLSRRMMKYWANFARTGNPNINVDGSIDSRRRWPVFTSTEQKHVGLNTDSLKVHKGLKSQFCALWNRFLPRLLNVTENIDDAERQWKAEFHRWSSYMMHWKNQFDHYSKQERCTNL

Compound	viability at 24 h, 1 µM (in vitro [1])	viability at 24 h, 100 µM (in vitro [2])	viability at 24 h, 30 µM (in vitro [3])	viability at 24 h, 10 µM (in vitro [4])	Activity (HepG2 [5])	viability at 24 h, 3 µM (in vitro [6])	IC50 (Acetylcholinesterase [7])	viability at 24 h, 300 µM (in vitro [8])	also measured
CN(C)c1ccc(C2c3ccc(O)cc3Oc3nc4c(c(N)c32)CCCC4)cc1 (racemic)	99%	85.5%	85.5%	86.1%	Dose-dependent effect	88.5%	290 nM	80.3%	–
Cc1c(C)c2c(c(C)c1O)CCC(C)(C(=O)O)O2 (stereo unspecified)	–	–	–	–	–	–	–	–	inhibition [9]: 63%
Nc1c2c(nc3c1C(c1ccccc1)c1ccc(O)cc1O3)CCCC2 (racemic)	99.5%	55.8%	62.4%	66.2%	Dose-dependent effect	67.4%	550 nM	49.6%	–
Cc1ccc(C2c3ccc(O)cc3Oc3nc4c(c(N)c32)CCCC4)cc1 (racemic)	96.9%	71.7%	74.3%	85.6%	Dose-dependent effect	89.5%	65 nM	47.9%	–
CC(Cc1ccc(O)c(O)c1)C(C)Cc1ccc(O)c(O)c1 (stereo unspecified)	–	–	–	–	–	–	–	–	inhibition (Glycine max): 84%
Nc1c2c(nc3c1C(c1ccc(Br)cc1)c1ccc(O)cc1O3)CCCC2 (racemic)	99%	74.4%	76.9%	84.8%	Dose-dependent effect	87.4%	7 nM	61.5%	–
Nc1c2c(nc3c1C(c1ccc(F)cc1)c1ccc(O)cc1O3)CCCC2 (racemic)	91%	55.5%	55.7%	62.8%	Dose-dependent effect	75.1%	103 nM	50.1%	–
COc1cc(C2c3ccc(O)cc3Oc3nc4c(c(N)c32)CCCC4)cc(OC)c1OC (racemic)	102%	98.3%	100%	101%	Dose-dependent effect	98.7%	41 nM	103%	inhibition (Cerebral cortex neuron [10]): Active; fold change (FC) [11]: 1.83; fold change (FC) [12]: 1.81; inhibition (Glycine max): 18%; fold change (FC) [13]: 1.93; fold change (FC) [14]: 3.43; inhibition [15]: Active; EC50 [16]: 3470 nM; inhibition [9]: 85%; fold change (FC) [17]: 2.31; Ki (Acetylcholinesterase [18]): 47 nM; Activity [19]: Toxic; Activity [20]: 81.08%; Activity (HepG2 [21]): Non-toxic; Activity (SH-SY5Y): Dose-dependent effect; Activity [22]: 148.12%; inhibition (Cerebral cortex neuron [23]): Active; EC50 [24]: 1110 nM
COc1ccc(C2c3ccc(O)cc3Oc3nc4c(c(N)c32)CCCC4)cc1 (racemic)	97.3%	85.9%	95%	94.1%	Dose-dependent effect	96.8%	530 nM	75.5%	–

Reference: ChEMBL document CHEMBL3120120, “Toxicological and pharmacological evaluation, antioxidant, ADMET and molecular modeling of selected racemic chromenotacrines {11-amino-12-aryl-8,9,10,12-tetrahydro-7H-chromeno[2,3-b]quinolin-3-ols} for the potential prevention and treatment of Alzheimer's disease” (Eur J Med Chem, 2014)
